Drawing on ChEMBL document CHEMBL3507680, “University of Dundee, Gates Library screen for HepG2 cell viability”, this text covers cytotoxicity for 101 compounds.

Structures are written as SMILES.

A short description of the data set: Human HepG2 cell viability assay in 384 well format. More on the design: dose 125 nL, time 70.5 hour; concentration not given beside the values. As to conditions: HepG2 cells, read-out: Inhibition. Type of data set: toxicity, cell-based.
On to `CCn1nc(CC(C)C)cc1C(=O)N1CCOCC(O)C1` (stereo unspecified), for which the cytotoxicity at 70.5 h is -2.68%.

With `Cc1ccc(C(=O)NCC2(O)CCOCC2)cc1F`, the cytotoxicity at 70.5 h was -1.08%. On to `CCc1nnc2n1CCN(C(=O)c1cc(Br)c[nH]1)C2`, for which the cytotoxicity at 70.5 h is -5.11%.

With `CN1CCC(NC(=O)c2cc(F)cc(Cl)c2O)C1=O` (stereo unspecified), the cytotoxicity at 70.5 h was -2.94%. Take `Cc1ccccc1CS(=O)(=O)NCCCN1CCCCC1`: the cytotoxicity at 70.5 h was -4.67%. The same measure for `COc1ccccc1OCC(=O)NS(=O)(=O)c1ccc(Cl)cc1F`: 13.3%; for `COCCNc1nc2c(c(N3CCn4nc(C)cc4C3)n1)CCNCC2`: -8.96%; for `CC(C)n1nc(CN2CCCC2=O)c2c1CN(C(=O)c1ccc[nH]1)C2`: -5.63%. For `Cc1cc(F)ccc1S(=O)(=O)N1CCN(C)c2ccncc21` the value was 4.79%.

Regarding `CCN(Cc1cccc(-c2ccncc2)c1)S(C)(=O)=O`, the cytotoxicity at 70.5 h was -4.62%. For `Cc1cc(C)n(C2CCCN(C(=O)c3ccnc(N(C)C)c3)C2)n1` (stereo unspecified) the value was -0.851%. Regarding `CN(C)CCOc1ccccc1N1CCN(C(=O)C(C)(C)C#N)CC1`, the cytotoxicity at 70.5 h was -0.199%. For `Cc1ccc(CN2Cc3c(C(=O)N(C)C)nn(C)c3C2)s1` the value was -3.13%; for `CC(C)(C)CN1CCC[C@H]1c1nc(-c2cncnc2N)no1`, -0.753%. In the case of `COc1cccc(-c2ncc(CN3C[C@@H]4CC[C@H](C3)N(C)C4=O)s2)c1`, the cytotoxicity at 70.5 h is -0.692%. For `Cc1cn2nc(N3CCN(Cc4cc(C)on4)CC3)sc2n1` the value was -2.77%; for `CC(C)CN1CCc2[nH]cnc2C12CCN(C(=O)c1cc[nH]n1)CC2`, -5.86%; for `COCC(=O)NCc1cc2n(n1)CCCN(Cc1ccccc1SC)C2`, -6.55%. The same measure for `Cc1ccc(N2CCCC(NCC3=Cc4ccccc4OC3)C2)nn1` (stereo unspecified): -5.84%; for `CN(C)C(=O)N1CCN(C(=O)CCc2ccccc2)[C@H]2CS(=O)(=O)C[C@H]21`: -5.59%. For `COc1c(C)cnc(CN(C)C(=O)c2cccc(NC(N)=O)c2)c1C` the value was -2.3%; for `CC(C(=O)NCCCN1CCCCCC1=O)n1cncn1` (stereo unspecified), -0.359%; for `CN(Cc1ccccc1NCc1cscn1)C(=O)c1cccs1`, -3.79%.

Consider `CC1CCN(CCNC(=O)c2ccn(-c3ccccc3)n2)CC1`, for which the cytotoxicity at 70.5 h is -6.14%. For `CCCN1Cc2cc(Br)ccc2OCC1=O` the value was 28.2%. The same measure for `CC(C)(C)c1cc(=O)n2c(n1)SCC(C(=O)NCc1cccs1)C2` (stereo unspecified): 0.387%; for `CCc1nsc(N2CCN(CC(=O)NCc3cccnc3)CC2)n1`: -5.18%. For `CC(NC1CCN(CCS(C)(=O)=O)CC1)c1ccc(Cl)cc1` (stereo unspecified) the value was 19.3%; for `CC(C)NC(=O)c1ccc2c(c1)nc1n2CCN(Cc2ccccc2)C1`, -12.9%.

`CNC(=O)c1ncn2c1CN(CCC(C)C)S(=O)(=O)c1ccccc1-2`: the cytotoxicity at 70.5 h is -9.5%.

Consider `CC1(C)COCCN1C(=O)CCc1nc(-c2ccc(Cl)cc2)no1`, for which the cytotoxicity at 70.5 h was -20%. For `O=C(O)[C@]12CCCN(Cc3ccncc3)[C@@H]1CCN(c1cnccn1)C2` the value was 8.46%; for `CCS(=O)(=O)Cc1ccn(-c2cccc(F)c2)n1`, -3.75%. Consider `O=C(NCC(O)c1ccc(F)c(F)c1)c1cccnc1OCC(F)(F)F` (stereo unspecified), for which the cytotoxicity at 70.5 h is -8.69%. The same measure for `CC(C)Oc1cc(N2CCC3(CC2)[C@H](O)C[C@@H]3O)nc(N)n1`: -1.26%. For `CCn1ncc2c1C(COC)CN(Cc1ccc(OC)cc1)C2` (stereo unspecified) the value was -5.26%. On to `NC(=O)C1CCN(c2ccc(C(=O)N3CCc4ccccc43)cn2)C1` (stereo unspecified), for which the cytotoxicity at 70.5 h was -4.05%. For `CC1Cc2ccccc2N1Cc1occc1C(=O)O` (stereo unspecified) the value was -5.89%. For `CC(C)c1[nH]c2ncccc2c1CN1CCOCC1` the value was 4.28%; for `CN(C)C(C(=O)NCc1cc(C(C)(C)C)n[nH]1)c1ccc(F)cc1` (stereo unspecified), -4.44%; for `CC(=O)NCCC(=O)NC1(c2ccc(Cl)c(Cl)c2)CC1`, -3.79%. For `Cc1cnc(-c2nc(C3CCCN(Cc4ccccc4C)C3)no2)cn1` (stereo unspecified) the value was 21.7%; for `CN(C)CC1CCCCN1C(=O)c1ccc(N2CCOCC2)cc1` (stereo unspecified), 0.118%; for `CC(=O)N1CCOCC2(CCN(Cc3ccc(C)s3)CC2)C1`, -4.66%.

Regarding `Cc1cc(CN2CCc3cncnc3C2)no1`, the cytotoxicity at 70.5 h was -8.98%. For `Fc1ccc(F)c(CN2CCC(c3n[nH]c4ncccc34)CC2)c1` the value was -7.24%. The same measure for `O=C(COCc1ccccc1)N1CCCn2cncc2C1`: -4.83%.

As for `CCN(Cc1cccc(C(N)=O)c1)c1ccccc1`, the cytotoxicity at 70.5 h is 12.2%. For `CCC[C@@H]1CN(Cc2ccccc2C#N)C[C@H]1NC(C)=O`, the cytotoxicity at 70.5 h is -1.98%. For `c1cc2c(cc1C[C@@H]1CC[C@H](CN3CCCOCC3)O1)OCO2` the value was -5.03%. For `CN1CCN(C2CCN(Cc3noc(C4CC4)n3)CC2)C1=O` the value was -1.19%.

For `Cc1noc([C@@]23CCO[C@@H]2CCN(C(=O)c2ccsc2)C3)n1`, the cytotoxicity at 70.5 h is -1.85%. As for `Cn1c(-c2cccs2)nn(CCNS(=O)(=O)c2ccccc2Cl)c1=O`, the cytotoxicity at 70.5 h was -1.9%. The same measure for `Cc1cccc(Nc2c(C#N)c(=O)n(C)c(=O)n2C)c1`: -3.97%; for `O=C(CCc1ccccc1)N1CCC(c2n[nH]c(C3CC3)n2)CC1`: -7.31%. The same measure for `CCN(CC)C1(Cc2cc(-c3ccccn3)on2)COC1`: -4.45%; for `CC(C)OCCC(=O)NCC(O)c1c(F)cccc1F` (stereo unspecified): -6.84%; for `Fc1ccc(CNCC2Cn3nncc3CO2)cc1` (stereo unspecified): -7.4%.

As to `NC(=O)C1CCCN1Cc1cccc(NC(=O)c2ccsc2)c1` (stereo unspecified), the cytotoxicity at 70.5 h was -11.3%. For `COc1c(CNCc2ccccc2-n2ccnc2)c(C)nn1C` the value was 8.51%; for `CC(C)(C)n1cc(C(=O)N2CCCN(Cc3cccs3)CC2)cn1`, -2.48%.

As to `CC(C)CCc1cc(C(=O)O)nc2[nH]c(=O)[nH]c(=O)c12`, the cytotoxicity at 70.5 h is -15.5%.

As for `Cc1ncsc1CN1CC[C@H](O)[C@@H](n2cnc3c(N)ncnc32)CC1`, the cytotoxicity at 70.5 h came out at 8.32%. For `Cc1cnn(CC2CN(CCN3CCCC3=O)CCO2)c1` (stereo unspecified) the value was -11.5%; for `Cc1nn(C)c(C)c1OCC(=O)N1CCCC1`, -6%.

As to `C=Cc1ccc(CSc2nc3c(c(=O)[nH]2)CN(CCC)CC3)cc1`, the cytotoxicity at 70.5 h turned out to be 8.58%. The same measure for `Cc1cnc(C(=O)N2CC(=O)N(c3ccccc3Cl)CC2C)cn1` (stereo unspecified): -6.52%. The same measure for `CC(C)Nc1ncccc1C(=O)NCc1ccnn1C`: 6.47%. Consider `CN(Cc1nnc(C2CC2)o1)C1CCN(CCc2cccs2)C1` (stereo unspecified), for which the cytotoxicity at 70.5 h came to 30.4%. The same measure for `CC(C)COC(C)C(=O)NCc1ccccc1` (stereo unspecified): -5.1%; for `CC(C)C(=O)N1CCN(Cc2cc(-c3ccncc3)nn2C)CC1`: 31.9%.

Regarding `O=C(NCCO)Nc1c(F)cccc1Oc1ccccc1`, the cytotoxicity at 70.5 h is -7.66%. The same measure for `O=C(COc1cccc(F)c1)N1CCCCC1c1ccn2ccnc2n1` (stereo unspecified): -9.3%; for `Cc1ccccc1N1CCN(C(=O)Cc2ccc3c(c2)OCO3)CC1=O`: -2.79%; for `O=C(NCc1ccc(Br)cc1)C1(O)CCSCC1`: -1.14%. Turning to `CC(C)n1c(=O)c2ccccc2n(CCN2CCCCC2)c1=O`, the cytotoxicity at 70.5 h is -12.6%. On to `O=C1CCC2(CCN(Cc3ccc(F)cc3)CC2)N1CCN1CCCC1`, for which the cytotoxicity at 70.5 h is -19.9%. For `NC(=O)c1ccc(N2CCN(CCCc3cn[nH]c3)CC2)cc1`, the cytotoxicity at 70.5 h is -0.688%.

For the compound `Cc1ccccc1-c1cncc(C2CCN(S(=O)(=O)N(C)C)CC2)n1`, the cytotoxicity at 70.5 h is -2.74%. The same measure for `CC(C)CNC(=O)CNC(=O)c1nc(Cc2c(Cl)cccc2Cl)no1`: -9.72%. For `OCCN1CCC(CNCc2ccccc2OC(F)(F)F)CC1` the value was -7.57%. With `Cc1ccc(OCC(C)NS(C)(=O)=O)cc1` (stereo unspecified), the cytotoxicity at 70.5 h was -4.31%. For `CCNC(=O)CCc1c(C)nc2cc(O)nn2c1C` the value was -5%; for `CSc1nccc(N2CCC3(CCCN(Cc4ccc(F)cc4)C3)C2)n1` (stereo unspecified), -3.25%. Turning to `COc1cc(-c2n[nH]c(CCN)n2)cc(OC)c1OC`, the cytotoxicity at 70.5 h was 22.8%.

As to `COCc1cn(CC2CCN(Cc3cc(C)[nH]n3)CC2)nn1`, the cytotoxicity at 70.5 h turned out to be 20%. For `Cc1ccc(CNC(=O)NC(C)CCS(C)(=O)=O)cc1F` (stereo unspecified) the value was -7.34%. Consider `COCCOc1ccc(NCc2cccc3cn[nH]c23)cn1`, for which the cytotoxicity at 70.5 h was -7.69%.

Regarding `CC(c1ccon1)N(C)C(=O)C1CCN(C(=O)C2CCC2)CC1` (stereo unspecified), the cytotoxicity at 70.5 h came to 25.3%. For `Cc1ccc(C)c(OC(C)C(=O)NCCNc2cccnc2)c1` (stereo unspecified) the value was -0.127%.

As to `CNC(=O)C1CN(C(=O)c2ccncc2)CCN(S(C)(=O)=O)C1` (stereo unspecified), the cytotoxicity at 70.5 h stood at 22.7%. Consider `Cc1cc(N2CCN(C(=O)c3cccnc3)CC2)nc(C)n1`, for which the cytotoxicity at 70.5 h was -2.72%.

As to `CCSc1cc(C(=O)N(CC(F)F)C(C)C)ccn1`, the cytotoxicity at 70.5 h is -3.2%.

Regarding `CC1CCN(CC(=O)N(Cc2ccccc2)Cc2nccs2)C1=O` (stereo unspecified), the cytotoxicity at 70.5 h was -11.6%. The same measure for `CCc1c(C)sc2c1c(N)nc(=O)n2CCN1CCCCC1`: 5.23%; for `Cc1ccccc1N1CCN(C(=O)c2ccc[nH]2)C(C)C1` (stereo unspecified): -2.71%.

On to `O=C(C1CCCOC1)N1CCN(CC(F)(F)F)c2ccccc21` (stereo unspecified), for which the cytotoxicity at 70.5 h was -1.7%. For `CNS(=O)(=O)c1cccc(C(C)NCc2nccn2C(C)C)c1` (stereo unspecified) the value was 10.8%. For `O=C(OCCNc1ncccn1)c1ccc(Cl)s1` the value was -3.07%; for `CCN1CCCC1CNC(=O)Cc1c(-c2ccc(Cl)cc2)n[nH]c1C` (stereo unspecified), 21.2%; for `CCn1c(C)cc(C(=O)Nc2ccccc2CN(C)C(C)=O)c1C`, -9.11%.
